“And” between values parts separate entries of the source, which are not always exact repeats. Equal values may be shown once. Read-outs that look alike come from different tables or passages of the source.
Assays:
DCAMKL1 (DCLK1) = molecular target: T1, DCAMKL1 (DCLK1) (Homo sapiens, UniProt O15075); assay: SelectScreen kinase assay
T1 sequence (O15075 1-740): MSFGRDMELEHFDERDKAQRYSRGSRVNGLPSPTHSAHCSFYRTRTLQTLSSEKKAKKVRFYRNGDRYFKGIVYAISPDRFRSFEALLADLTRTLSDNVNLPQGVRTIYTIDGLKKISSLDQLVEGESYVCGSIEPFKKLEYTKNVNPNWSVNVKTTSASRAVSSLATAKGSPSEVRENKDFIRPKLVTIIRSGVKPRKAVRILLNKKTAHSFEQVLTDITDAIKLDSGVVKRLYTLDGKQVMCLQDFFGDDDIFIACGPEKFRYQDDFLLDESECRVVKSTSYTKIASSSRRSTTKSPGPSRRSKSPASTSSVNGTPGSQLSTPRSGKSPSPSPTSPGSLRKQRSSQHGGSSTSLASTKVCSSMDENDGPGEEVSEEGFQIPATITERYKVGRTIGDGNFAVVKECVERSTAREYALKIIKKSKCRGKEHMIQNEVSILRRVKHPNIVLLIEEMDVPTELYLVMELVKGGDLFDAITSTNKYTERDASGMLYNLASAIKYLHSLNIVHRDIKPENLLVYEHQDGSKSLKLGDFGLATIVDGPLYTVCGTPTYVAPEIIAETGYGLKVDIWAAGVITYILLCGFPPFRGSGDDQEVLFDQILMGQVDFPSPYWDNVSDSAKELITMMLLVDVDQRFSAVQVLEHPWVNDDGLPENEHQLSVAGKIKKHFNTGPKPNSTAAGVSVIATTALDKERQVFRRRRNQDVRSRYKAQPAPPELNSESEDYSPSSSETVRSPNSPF
Experimental: (§1) Selectivity profiling assays were performed by the Invitrogen SelectScreen™ Services. […] The concentration of ATP was selected to be equal to the KM, unless indicated otherwise.

SLK = SLK (Homo sapiens, UniProt Q9H2G2); assay: SelectScreen kinase assay
SLK, sequence (Q9H2G2 whole entry): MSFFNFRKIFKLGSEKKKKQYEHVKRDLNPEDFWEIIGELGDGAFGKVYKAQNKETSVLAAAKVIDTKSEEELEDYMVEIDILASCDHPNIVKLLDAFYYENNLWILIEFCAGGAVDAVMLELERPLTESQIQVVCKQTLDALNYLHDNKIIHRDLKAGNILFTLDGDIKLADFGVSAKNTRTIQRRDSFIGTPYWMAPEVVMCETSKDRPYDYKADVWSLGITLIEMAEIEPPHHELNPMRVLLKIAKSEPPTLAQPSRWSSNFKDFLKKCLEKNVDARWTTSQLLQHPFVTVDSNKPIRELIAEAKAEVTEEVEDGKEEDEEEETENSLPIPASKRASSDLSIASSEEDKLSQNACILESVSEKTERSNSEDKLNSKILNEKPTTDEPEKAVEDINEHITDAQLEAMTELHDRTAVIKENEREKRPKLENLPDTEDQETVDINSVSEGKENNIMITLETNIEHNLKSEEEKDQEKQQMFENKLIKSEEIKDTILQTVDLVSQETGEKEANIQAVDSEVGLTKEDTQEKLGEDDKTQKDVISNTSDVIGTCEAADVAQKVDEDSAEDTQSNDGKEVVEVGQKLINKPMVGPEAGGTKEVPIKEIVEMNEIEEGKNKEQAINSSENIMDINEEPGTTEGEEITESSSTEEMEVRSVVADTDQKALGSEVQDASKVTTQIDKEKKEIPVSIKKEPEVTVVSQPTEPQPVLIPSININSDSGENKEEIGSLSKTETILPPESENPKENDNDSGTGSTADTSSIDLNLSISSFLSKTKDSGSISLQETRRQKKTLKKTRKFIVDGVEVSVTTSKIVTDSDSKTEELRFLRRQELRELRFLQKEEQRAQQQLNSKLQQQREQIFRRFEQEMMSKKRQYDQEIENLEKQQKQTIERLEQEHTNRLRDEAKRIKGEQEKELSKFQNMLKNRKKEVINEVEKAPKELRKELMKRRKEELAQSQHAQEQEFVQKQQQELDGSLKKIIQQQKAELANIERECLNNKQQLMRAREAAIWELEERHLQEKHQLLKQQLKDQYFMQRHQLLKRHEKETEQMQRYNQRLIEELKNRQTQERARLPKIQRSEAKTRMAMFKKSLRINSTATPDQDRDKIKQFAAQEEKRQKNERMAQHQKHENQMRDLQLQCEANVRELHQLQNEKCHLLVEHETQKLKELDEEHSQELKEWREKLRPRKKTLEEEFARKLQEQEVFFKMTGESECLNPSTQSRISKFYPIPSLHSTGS
Experimental: as §1

ACVR2B = ACVR2B (Homo sapiens, UniProt Q13705); assay: SelectScreen kinase assay
ACVR2B, sequence (Q13705 19-512): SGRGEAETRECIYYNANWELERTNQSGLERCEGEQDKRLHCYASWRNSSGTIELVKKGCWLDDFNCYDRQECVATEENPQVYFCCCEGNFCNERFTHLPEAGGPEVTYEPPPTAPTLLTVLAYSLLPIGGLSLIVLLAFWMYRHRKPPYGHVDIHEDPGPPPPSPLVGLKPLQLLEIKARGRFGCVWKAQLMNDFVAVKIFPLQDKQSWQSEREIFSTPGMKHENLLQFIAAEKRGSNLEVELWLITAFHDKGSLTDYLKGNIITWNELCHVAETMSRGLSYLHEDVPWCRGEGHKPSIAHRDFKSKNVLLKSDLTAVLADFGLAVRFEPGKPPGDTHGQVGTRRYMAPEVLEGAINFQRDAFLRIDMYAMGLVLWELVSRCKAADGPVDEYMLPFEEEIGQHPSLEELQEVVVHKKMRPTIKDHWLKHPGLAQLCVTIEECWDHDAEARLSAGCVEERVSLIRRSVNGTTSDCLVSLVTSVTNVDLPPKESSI
Experimental: as §1

LATS2 = molecular target: T2, LATS2 (Homo sapiens, UniProt Q9NRM7); assay: SelectScreen kinase assay; conditions: for Inhibition at 1 µM (%): LATS2, LanthaScreen Binding
T2 sequence (Q9NRM7 1-1088): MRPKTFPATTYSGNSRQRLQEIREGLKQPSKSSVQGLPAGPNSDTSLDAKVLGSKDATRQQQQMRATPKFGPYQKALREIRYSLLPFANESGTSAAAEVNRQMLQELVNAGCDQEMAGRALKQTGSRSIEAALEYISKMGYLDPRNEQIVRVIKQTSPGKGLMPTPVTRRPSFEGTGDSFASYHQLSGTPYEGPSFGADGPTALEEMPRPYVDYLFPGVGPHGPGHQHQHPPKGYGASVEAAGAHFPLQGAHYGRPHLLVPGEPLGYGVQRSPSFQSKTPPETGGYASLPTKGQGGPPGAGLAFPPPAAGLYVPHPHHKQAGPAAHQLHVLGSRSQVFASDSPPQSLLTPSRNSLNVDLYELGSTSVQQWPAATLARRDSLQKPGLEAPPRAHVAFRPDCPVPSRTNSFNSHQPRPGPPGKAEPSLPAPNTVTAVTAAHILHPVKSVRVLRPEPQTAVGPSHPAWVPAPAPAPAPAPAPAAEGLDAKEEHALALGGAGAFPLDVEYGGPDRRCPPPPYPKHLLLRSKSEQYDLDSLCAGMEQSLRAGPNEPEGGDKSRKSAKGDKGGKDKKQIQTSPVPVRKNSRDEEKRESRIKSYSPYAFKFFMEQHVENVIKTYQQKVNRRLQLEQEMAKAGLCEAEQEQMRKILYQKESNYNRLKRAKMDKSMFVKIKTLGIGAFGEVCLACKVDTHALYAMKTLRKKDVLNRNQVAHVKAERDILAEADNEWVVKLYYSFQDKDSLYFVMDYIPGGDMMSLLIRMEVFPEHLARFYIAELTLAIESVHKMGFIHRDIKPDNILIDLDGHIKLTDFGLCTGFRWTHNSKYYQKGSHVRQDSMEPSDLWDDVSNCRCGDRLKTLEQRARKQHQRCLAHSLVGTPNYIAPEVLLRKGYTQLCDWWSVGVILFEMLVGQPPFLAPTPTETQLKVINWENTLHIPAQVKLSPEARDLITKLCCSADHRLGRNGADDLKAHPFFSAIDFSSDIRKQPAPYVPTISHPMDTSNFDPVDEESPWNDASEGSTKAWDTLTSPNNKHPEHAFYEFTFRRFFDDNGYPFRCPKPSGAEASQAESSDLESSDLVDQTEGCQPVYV
Experimental: as §1

PRKG1 = PRKG1 (Homo sapiens, UniProt Q13976); assay: SelectScreen kinase assay
PRKG1, sequence (Q13976 whole entry): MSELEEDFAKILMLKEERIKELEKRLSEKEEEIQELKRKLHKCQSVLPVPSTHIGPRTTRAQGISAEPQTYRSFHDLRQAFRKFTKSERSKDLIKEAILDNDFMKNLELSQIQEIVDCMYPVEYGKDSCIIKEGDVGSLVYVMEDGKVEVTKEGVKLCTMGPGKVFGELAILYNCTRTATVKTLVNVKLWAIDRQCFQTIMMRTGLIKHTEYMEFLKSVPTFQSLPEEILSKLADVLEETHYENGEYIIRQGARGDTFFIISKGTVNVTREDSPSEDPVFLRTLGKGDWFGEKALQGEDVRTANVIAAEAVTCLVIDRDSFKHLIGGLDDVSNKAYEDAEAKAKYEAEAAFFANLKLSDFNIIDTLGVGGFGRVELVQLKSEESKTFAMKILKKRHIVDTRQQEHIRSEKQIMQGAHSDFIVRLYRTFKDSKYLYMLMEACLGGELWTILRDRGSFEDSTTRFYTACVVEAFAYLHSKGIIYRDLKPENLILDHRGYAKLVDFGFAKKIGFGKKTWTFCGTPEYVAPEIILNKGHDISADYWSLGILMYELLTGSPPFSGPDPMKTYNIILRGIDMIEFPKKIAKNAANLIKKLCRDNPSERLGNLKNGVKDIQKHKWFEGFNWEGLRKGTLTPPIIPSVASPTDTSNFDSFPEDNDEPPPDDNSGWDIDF
Experimental: as §1

AURKB (Aurora B) = AURKB (Aurora B) (Homo sapiens, UniProt Q96GD4); assay: SelectScreen kinase assay
AURKB (Aurora B), sequence (Q96GD4 whole entry): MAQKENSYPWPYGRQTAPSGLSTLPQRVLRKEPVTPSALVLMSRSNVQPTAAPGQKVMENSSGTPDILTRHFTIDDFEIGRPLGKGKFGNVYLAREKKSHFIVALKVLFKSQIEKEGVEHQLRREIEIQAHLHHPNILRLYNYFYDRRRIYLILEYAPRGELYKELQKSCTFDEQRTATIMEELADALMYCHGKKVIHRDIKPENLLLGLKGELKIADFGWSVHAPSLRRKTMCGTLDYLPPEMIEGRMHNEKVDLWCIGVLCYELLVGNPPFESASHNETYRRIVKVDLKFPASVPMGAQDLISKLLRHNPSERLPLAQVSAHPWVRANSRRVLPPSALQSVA
Experimental: as §1

CAMK2G (CaMKII gamma) = CAMK2G (CaMKII gamma) (Homo sapiens, UniProt Q13555); assay: SelectScreen kinase assay
Experimental: as §1

INSRR (IRR) = INSRR (IRR) (Homo sapiens, UniProt P14616); assay: SelectScreen kinase assay; conditions: 1 h, 1 μM WEL028, 1 h preincubation
Experimental: as §1

HIPK3 (YAK1) = HIPK3 (YAK1) (Homo sapiens, UniProt Q9H422); assay: SelectScreen kinase assay
Experimental: as §1

CDK6/cyclin D1 = CDK6/cyclin D1 (Homo sapiens, UniProt Q00534); assay: SelectScreen kinase assay; conditions: 1 h, 1 μM WEL028, 1 h preincubation
Experimental: as §1

PRKCN (PKD3) = PRKCN (PKD3) (Homo sapiens, UniProt O94806); assay: SelectScreen kinase assay
PRKCN (PKD3), sequence (O94806 whole entry): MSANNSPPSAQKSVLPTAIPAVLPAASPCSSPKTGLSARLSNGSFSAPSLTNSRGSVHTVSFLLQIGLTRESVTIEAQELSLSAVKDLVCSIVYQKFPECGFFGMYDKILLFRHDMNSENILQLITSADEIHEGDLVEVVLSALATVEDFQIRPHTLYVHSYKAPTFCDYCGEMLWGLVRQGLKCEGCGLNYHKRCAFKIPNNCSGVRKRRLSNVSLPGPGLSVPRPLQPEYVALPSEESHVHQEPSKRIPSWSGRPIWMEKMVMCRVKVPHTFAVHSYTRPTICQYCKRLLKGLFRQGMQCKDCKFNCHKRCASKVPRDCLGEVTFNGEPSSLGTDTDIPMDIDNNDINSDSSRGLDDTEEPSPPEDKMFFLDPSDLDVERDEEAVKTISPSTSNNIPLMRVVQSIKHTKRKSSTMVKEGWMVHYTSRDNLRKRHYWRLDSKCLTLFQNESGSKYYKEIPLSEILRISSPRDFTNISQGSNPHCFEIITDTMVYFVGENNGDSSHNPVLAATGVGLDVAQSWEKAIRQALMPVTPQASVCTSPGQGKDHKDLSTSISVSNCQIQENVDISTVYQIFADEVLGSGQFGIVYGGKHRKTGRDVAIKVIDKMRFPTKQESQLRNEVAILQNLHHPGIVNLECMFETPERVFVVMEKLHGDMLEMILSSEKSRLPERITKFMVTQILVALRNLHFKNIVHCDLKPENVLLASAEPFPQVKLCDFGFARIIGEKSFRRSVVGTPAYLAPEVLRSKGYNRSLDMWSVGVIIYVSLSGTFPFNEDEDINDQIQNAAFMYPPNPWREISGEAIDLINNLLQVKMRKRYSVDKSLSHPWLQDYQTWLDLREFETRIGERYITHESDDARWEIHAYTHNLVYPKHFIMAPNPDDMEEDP
Experimental: as §1

full-length FES^S700C = full-length FES^S700C (Homo sapiens, UniProt P07332, S700C); assay: Competitive probe labeling with WEL033 in HEK293T lysate (gel-based)
EPHA4 = EPHA4 (Homo sapiens, UniProt P54764); assay: SelectScreen kinase assay
EPHA4, sequence (P54764 20-986): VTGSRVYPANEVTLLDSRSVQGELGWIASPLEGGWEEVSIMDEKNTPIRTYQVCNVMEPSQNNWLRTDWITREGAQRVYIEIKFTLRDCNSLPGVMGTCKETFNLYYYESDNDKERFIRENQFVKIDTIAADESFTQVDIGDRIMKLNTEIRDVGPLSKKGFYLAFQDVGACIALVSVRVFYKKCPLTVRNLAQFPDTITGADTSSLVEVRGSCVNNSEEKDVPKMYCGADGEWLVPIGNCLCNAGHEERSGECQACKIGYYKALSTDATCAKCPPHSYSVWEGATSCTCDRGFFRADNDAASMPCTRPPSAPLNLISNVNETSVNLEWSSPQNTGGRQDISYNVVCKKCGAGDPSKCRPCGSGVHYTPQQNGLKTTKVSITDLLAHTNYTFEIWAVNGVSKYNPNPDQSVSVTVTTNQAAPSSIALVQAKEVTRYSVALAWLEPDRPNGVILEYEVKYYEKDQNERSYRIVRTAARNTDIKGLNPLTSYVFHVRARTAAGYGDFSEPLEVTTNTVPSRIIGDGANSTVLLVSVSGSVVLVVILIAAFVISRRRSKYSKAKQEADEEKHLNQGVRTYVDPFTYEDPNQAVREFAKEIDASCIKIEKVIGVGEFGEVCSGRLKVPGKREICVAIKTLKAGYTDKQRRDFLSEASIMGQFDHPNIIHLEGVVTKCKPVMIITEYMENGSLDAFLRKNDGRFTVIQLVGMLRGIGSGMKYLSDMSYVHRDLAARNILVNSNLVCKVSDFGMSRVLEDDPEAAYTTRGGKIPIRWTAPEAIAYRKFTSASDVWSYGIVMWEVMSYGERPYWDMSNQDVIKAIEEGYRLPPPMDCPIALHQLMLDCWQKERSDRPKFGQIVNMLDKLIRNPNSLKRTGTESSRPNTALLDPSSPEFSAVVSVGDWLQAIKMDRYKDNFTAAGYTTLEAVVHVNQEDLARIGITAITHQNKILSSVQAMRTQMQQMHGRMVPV
Experimental: as §1

[1] = 1 h, 1 μM WEL028, 1 h preincubation

Question: How did the “Inhibition (%)” value (DCAMKL1 (DCLK1); 1 μM WEL028, 1 h preincubation) turn out when C#CCOc1ccc(Nc2ncc(Cl)c(Nc3ccccc3NC(=O)C=C)n2)c(OC)c1 [Compound 6] was run?
Answer: 4%

Question: What about the “Inhibition at 1 µM (%)” value (DCAMKL1 (DCLK1); DCAMKL1 (DCLK1), 1 µM, ZLYTE, ATP Km app, listed as WEL028, 1 µM) of the same compound?
Answer: 5%

Question: And the inhibition at 1 µM (DCAMKL1 (DCLK1); read-out: Inhibition at 1 µM (%), DCAMKL1 (DCLK1), 1 µM, ZLYTE, ATP Km app)?
Answer: 3%

Question: And the “Inhibition at 1 µM (%)” value (SLK; 1 µM, LanthaScreen Binding, listed as WEL028, 1 µM)?
Answer: 1% and 7%

Question: What about the inhibition at 1 µM (SLK; [1]) of the same compound?
Answer: 4%

Question: What about the “Inhibition (%)” value (ACVR2B; 1 μM WEL028, 1 h preincubation) of the same compound?
Answer: 9%

Question: And the “Inhibition at 1 µM (%)” value (ACVR2B; ACVR2B, 1 µM, LanthaScreen Binding, listed as WEL028, 1 µM)?
Answer: 7%

Question: And the inhibition at 1 µM (ACVR2B; read-out: Inhibition at 1 µM (%), ACVR2B, 1 µM, LanthaScreen Binding)?
Answer: 12%

Question: What about the “Inhibition (%)” value (LATS2; 1 μM WEL028, 1 h preincubation) of the same compound?
Answer: 2%

Question: And the “Inhibition at 1 µM (%)” value (LATS2)?
Answer: 3%

Question: And the “Inhibition at 1 µM (%)” value (LATS2; listed as WEL028, 1 µM)?
Answer: 0%

Question: And the “Inhibition at 1 µM (%)” value (PRKG1; 1 µM, ZLYTE, ATP Km app, listed as WEL028, 1 µM)?
Answer: -6% and 0%

Question: What about the inhibition at 1 µM (PRKG1; [1]) of the same compound?
Answer: -3%

Question: And the inhibition at 1 µM (AURKB (Aurora B); [1])?
Answer: 37%

Question: And the “Inhibition at 1 µM (%)” value (AURKB (Aurora B); AURKB (Aurora B), 1 µM, ZLYTE, ATP Km app, listed as WEL028, 1 µM)?
Answer: 32%

Question: And the inhibition at 1 µM (AURKB (Aurora B); read-out: Inhibition at 1 µM (%), AURKB (Aurora B), 1 µM, ZLYTE, ATP Km app)?
Answer: 41%

Question: What about the inhibition at 1 µM (CAMK2G (CaMKII gamma); [1]) of the same compound?
Answer: 3%

Question: And the “Inhibition at 1 µM (%)” value (CAMK2G (CaMKII gamma); CAMK2G (CaMKII gamma), 1 µM, LanthaScreen Binding)?
Answer: 13%

Question: What about the inhibition at 1 µM (INSRR (IRR)) of the same compound?
Answer: 9%

Question: What about the inhibition at 1 µM (HIPK3 (YAK1); [1]) of the same compound?
Answer: -3%

Question: And the “Inhibition at 1 µM (%)” value (HIPK3 (YAK1); HIPK3 (YAK1), 1 µM, ZLYTE, ATP Km app)?
Answer: -11%

Question: And the inhibition at 1 µM (CDK6/cyclin D1)?
Answer: -6%

Question: And the inhibition at 1 µM (PRKCN (PKD3); [1])?
Answer: 31%

Question: And the inhibition at 1 µM (PRKCN (PKD3); read-out: Inhibition at 1 µM (%), PRKCN (PKD3), 1 µM, ZLYTE, ATP Km app)?
Answer: 32%

Question: And the IC50 (full-length FES^S700C)?
Answer: 12.6 nM

Question: And the inhibition at 1 µM (EPHA4; [1])?
Answer: 5%

Question: What about the “Inhibition at 1 µM (%)” value (EPHA4; EPHA4, 1 µM, ZLYTE, ATP Km app, listed as WEL028, 1 µM) of the same compound?
Answer: 4%

Question: And the inhibition at 1 µM (EPHA4; read-out: Inhibition at 1 µM (%), EPHA4, 1 µM, ZLYTE, ATP Km app)?
Answer: 5%
